Tests used:
Type in all cases: cell-based
NRel-4 cell line = assay: Total, free and esterified cholesterol in cultured cells (Cholesterol Quantification kit)
Method: Total cholesterol (solid bars), esterified cholesterol (hatched bars), and free cholesterol (dotted) content is represented as μg per million cells. C_V: control CHO cells treated with ethanol carrier; N_V: NRel4 cells treated with ethanol carrier; N_5a: Nrel-4 cells treated with metabolic precursor 5a (20 μM).
To test the effect of metabolite precursors on total and esterified cholesterol in vitro, the CHO/NRel-4 cell line model was used. […] CHO cell line cultured in the presence of the ethanol vehicle (C_V) has 6.66 μg total cholestero/million cells. This reflects the wild type phenotype, and was used for normalization. The NRel-4 cell line deficient in plasmalogen synthesis cultured in the presence of ethanol vehicle (N_V) had 10.75 μg total cholestero/million cells (61% higher than control). Culturing the deficient cells with the metabolic precursor 5a (sn-1-alkyl, sn-2-DHA glycerol) for 72 hours at a concentration of 20 µM (N_5a) reduced the total cholesterol content to […] (24% higher than control). […] Treatment with 5a reduced the free cholesterol content to 5.8 μg/million cells. A reciprocal trend was observed when assaying the fraction of cholesterol that was esterified in the cell lines.

wild type CHO cells = assay: Restoration of PtdEt and EtnPl pools in vitro, wild type CHO cells; conditions: 20 μM, 72 hours
Method: (§1) FIGS. 25A-B show the relative change in the total EtnPls and PtdEt content. […] Values are normalized to untreated control CHO cells, and are an average of three independent experiments. Statistical significance was determined using a two-tailed t-test.
(§2) FIGS. 26A-B show the relative change in the DHA-EtnPls and DHA-PtdEt content. […] Values are normalized to untreated control CHO cells, and are an average of three independent experiments. Statistical significance was determined using a two-tailed t-test.
(§3) To investigate whether exogenous metabolic precursors can restore the ethanolamine phospholipids deficiency in vitro, a CHO cell line deficient in plasmalogen synthesis (NRel-4) was treated with the metabolic precursors 5a (sn-1-alkyl,sn-2-DHA glycerol) for 72 hours at a concentration of 20 μM, and its lipid profile was compared with the wild type cell line.

[1] = test system: plasmalogen-deficient NRel-4 cells; assay: Restoration of PtdEt and EtnPl pools in vitro, plasmalogen-deficient NRel-4 cells; conditions: 20 μM, 72 hours
Method: as §1, §2, §3

`CC/C=C\C/C=C\C/C=C\C/C=C\C/C=C\C/C=C\CCC(=O)OC(CO)COCCCCCCCCCCCCCCCC` (racemic) [Metabolite 5a, (4Z,7Z,10Z,13Z,16Z,19Z)-1-(hexadecyloxy)-3-hydroxypropan-2-yl docosa-4,7,10,13,16,19-hexanenoate] showed an Esterified cholesterol (NRel-4 cell line; NRel-4 cells treated with 5a, vehicle NRel-4 1.84) of 2.49 μg/million cells, a Free cholesterol content (NRel-4 cell line; NRel-4 cells treated with 5a, vehicle NRel-4 8.9, CHO 4.5) of 5.8 μg/million cells and a Total cholesterol content (NRel-4 cell line; NRel-4 cells, 72 hours, 20 μM (N_5a), vehicle NRel-4 10.75, CHO 6.66) of 8.28 μg/million cells. For the same compound, the “Total cholesterol content higher than control” value (NRel-4 cell line; NRel-4 cells, 72 hours, 20 μM, vs CHO vehicle control) was 24%, the “Increase in the esterified fraction of cholesterol” value (NRel-4 cell line; NRel-4 cells, vs vehicle-treated NRel-4) was 34% and the “Relative total EtnPls content” value (wild type CHO cells; normalized to untreated control CHO cells) was 86.9%. The “Total DHA-EtnPls pool” value (wild type CHO cells; of CHO levels) was 136.8%, the “Total PtdEt content” value (wild type CHO cells; of untreated control) was 54.9% and the DHA-PtdEt pool (wild type CHO cells; vs untreated control CHO) was 93.5%. For the same compound, the “Relative total EtnPls content” value ([1]; normalized to untreated control CHO cells, vehicle 10.8%) was 44.2%, the “Total DHA-EtnPls pool” value ([1]; of CHO levels, vehicle 8.7%) was 72.3% and the “Total PtdEt content” value ([1]; of the control CHO) was 55.9%. The DHA-PtdEt pool ([1]; vs untreated control CHO) was 110.6%.

Reference: patent US9517222B2, “Method for the treatment of senile dementia of the Alzheimer's type” (Phenomenome Discoveries Inc., priority 2007, dated 2016)
